Data set [1] addresses Potassium voltage-gated channel subfamily KQT member 2 (Mus musculus) (UniProt Q9Z351). Nature of the data set: Effective concentration against Potassium voltage gated channel KQT-like subfamily, member 2 (mouse) expressed in HEK 293 cells.
Data set [2] in a line: Elimination half life in rat after i.v. dose of 1 mg/kg. It is filed as ADME, organism-based. Also noted: dose 1 mg/kg, route intravenous. The settings on record: in vivo, iv.
In data set [3] the target is T1, Cytochrome P450 3A4 (Homo sapiens, UniProt P08684).
T1 sequence (P08684 whole entry): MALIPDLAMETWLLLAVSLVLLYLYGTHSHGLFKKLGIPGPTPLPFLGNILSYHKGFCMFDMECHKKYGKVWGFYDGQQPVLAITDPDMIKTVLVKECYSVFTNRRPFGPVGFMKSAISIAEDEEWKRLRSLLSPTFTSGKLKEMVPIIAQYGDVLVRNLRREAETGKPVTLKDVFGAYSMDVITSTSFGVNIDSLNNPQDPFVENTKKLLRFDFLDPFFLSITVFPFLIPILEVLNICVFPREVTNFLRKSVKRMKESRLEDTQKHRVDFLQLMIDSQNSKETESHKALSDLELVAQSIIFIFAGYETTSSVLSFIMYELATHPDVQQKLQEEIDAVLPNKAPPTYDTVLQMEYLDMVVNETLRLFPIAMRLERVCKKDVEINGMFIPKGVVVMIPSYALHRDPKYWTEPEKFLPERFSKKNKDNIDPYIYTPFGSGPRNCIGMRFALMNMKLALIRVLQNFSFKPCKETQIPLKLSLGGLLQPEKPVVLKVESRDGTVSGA
Description: Inhibition of recombinant human Cytochrome P450 3A4 with BFC [7-benzyloxy-4-trifluoromethylcoumarin] after 5 minutes
The nature of data set [4]: Plasma clearance in rat after i.v. dose of 1 mg/kg. It is filed as ADME, organism-based. The settings on record: iv. On the set-up: dose 1 mg/kg, route intravenous.
Data set [5] has as its target Potassium voltage-gated channel subfamily KQT member 2 (Homo sapiens, UniProt O43526). Nature of the data set: Effective concentration against Potassium voltage gated channel, KQT-like subfamily, member 2 expressed in SH-SY5Y human neuroblastoma cells. It is filed as cell-based.
Data set [6] in a line: Vd compound was determined in rat after i.v. dose of 1 mg/kg. Format: ADME, organism-based. On the set-up: dose 1 mg/kg, route intravenous. The settings on record: in vivo, iv.
Data set [7] has as its target T1, Cytochrome P450 3A4. This is another data set of the same source.
Description: Inhibition of recombinant human Cytochrome P450 3A4 using BFC [7-benzyloxy-4-trifluoromethylcoumarin] after 30 minutes
The target in data set [8] is T1, Cytochrome P450 3A4. The source holds these as a separate data set.
Description: Inhibition of recombinant human Cytochrome P450 3A4 with BFC [7-benzyloxy-4-trifluoromethylcoumarin] after 15 minutes
The target in data set [9] is T1, Cytochrome P450 3A4. This is another data set of the same source.
Description: Inhibition of recombinant human Cytochrome P450 3A4 with BFC [7-benzyloxy-4-trifluoromethylcoumarin] after 45 minutes
Data set [10] can be described thus: Oral bioavailability in rat after oral administration of 10 mg/kg dose. It is filed as ADME, organism-based. The settings on record: in vivo.
For another data set, the target named is T2, Cytochrome P450 1A2 (Homo sapiens, UniProt P05177).
T2 sequence (P05177 whole entry): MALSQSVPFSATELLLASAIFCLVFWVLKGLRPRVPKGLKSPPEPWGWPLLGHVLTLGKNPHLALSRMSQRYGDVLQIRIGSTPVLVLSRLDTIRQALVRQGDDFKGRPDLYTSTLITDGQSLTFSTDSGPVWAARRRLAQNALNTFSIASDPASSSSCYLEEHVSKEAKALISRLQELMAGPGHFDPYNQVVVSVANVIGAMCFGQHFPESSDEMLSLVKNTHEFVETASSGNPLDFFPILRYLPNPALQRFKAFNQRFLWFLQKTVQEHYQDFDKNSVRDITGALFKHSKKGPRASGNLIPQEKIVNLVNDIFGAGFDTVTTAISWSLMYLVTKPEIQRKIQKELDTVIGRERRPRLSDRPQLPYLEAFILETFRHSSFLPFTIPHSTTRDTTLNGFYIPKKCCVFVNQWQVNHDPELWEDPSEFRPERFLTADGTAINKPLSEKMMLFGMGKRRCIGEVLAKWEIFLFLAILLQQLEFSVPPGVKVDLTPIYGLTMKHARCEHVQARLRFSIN
Description: Inhibition of recombinant human Cytochrome P450 1A2. Format: ADME.

Data set [11] concerns the target T1, Cytochrome P450 3A4. Format: ADME.
Data set [12] deals with Cytochrome P450 2C19 (Homo sapiens) (UniProt P33261). Description: Inhibition of recombinant human Cytochrome P450 2C19.
Sequence of Cytochrome P450 2C19 (Homo sapiens) (P33261 whole entry, looked up): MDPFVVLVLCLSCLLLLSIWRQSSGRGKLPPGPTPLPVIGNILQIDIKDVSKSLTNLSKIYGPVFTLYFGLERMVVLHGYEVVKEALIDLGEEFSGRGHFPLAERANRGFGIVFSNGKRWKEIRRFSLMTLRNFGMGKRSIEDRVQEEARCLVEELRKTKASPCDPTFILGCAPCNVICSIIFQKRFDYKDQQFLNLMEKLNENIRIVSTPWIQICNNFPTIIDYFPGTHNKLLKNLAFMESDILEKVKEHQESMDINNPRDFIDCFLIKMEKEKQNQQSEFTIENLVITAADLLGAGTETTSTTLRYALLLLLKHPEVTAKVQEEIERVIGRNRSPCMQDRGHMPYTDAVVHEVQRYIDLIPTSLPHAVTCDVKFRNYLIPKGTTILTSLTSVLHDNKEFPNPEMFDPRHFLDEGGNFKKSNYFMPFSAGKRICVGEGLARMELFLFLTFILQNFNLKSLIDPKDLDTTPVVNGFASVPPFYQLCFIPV
Data set [13] deals with T1, Cytochrome P450 3A4. Description: Inhibition of recombinant human Cytochrome P450 3A4 with Benzoylresorufin. It is filed as ADME.
The target of the next data set is Cytochrome P450 2C9 (Homo sapiens, UniProt P11712). Description: Inhibition of recombinant human Cytochrome P450 2C9. Format: ADME.
Sequence of Cytochrome P450 2C9 (P11712 whole entry): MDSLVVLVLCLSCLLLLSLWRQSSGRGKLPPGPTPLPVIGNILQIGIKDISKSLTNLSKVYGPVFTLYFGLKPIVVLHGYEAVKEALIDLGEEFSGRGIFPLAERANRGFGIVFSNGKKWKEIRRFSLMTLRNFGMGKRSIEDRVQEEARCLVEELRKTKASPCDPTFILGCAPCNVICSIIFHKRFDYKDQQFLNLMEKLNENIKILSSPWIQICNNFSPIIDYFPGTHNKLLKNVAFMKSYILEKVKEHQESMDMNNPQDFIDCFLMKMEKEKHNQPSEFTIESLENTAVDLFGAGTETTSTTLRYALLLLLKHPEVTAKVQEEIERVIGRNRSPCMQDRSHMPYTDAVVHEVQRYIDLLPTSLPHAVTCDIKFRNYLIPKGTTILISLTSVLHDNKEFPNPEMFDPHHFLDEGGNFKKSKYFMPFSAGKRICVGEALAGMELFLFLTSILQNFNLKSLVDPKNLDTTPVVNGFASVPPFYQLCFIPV
The target in another data set is Cytochrome P450 2D6 (Homo sapiens, UniProt P10635). Nature of the data set: Inhibition of recombinant human Cytochrome P450 2D6. Format: ADME.
Sequence of Cytochrome P450 2D6 (P10635 whole entry): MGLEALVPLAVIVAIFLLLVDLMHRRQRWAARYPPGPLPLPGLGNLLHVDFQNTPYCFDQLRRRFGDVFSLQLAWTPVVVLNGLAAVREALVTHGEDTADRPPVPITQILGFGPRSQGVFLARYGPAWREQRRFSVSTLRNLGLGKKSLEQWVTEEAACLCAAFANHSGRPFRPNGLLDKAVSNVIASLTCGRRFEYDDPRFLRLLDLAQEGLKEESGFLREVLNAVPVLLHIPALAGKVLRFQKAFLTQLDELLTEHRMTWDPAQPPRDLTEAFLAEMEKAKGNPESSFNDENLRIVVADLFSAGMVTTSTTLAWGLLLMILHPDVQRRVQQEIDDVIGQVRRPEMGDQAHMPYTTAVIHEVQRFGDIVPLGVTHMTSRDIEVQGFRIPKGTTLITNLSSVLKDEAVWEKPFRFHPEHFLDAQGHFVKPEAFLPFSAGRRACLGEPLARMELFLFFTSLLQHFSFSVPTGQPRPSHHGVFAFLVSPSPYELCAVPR

Sequence of Potassium voltage-gated channel subfamily KQT member 2 (Mus musculus) (Q9Z351 whole entry, looked up): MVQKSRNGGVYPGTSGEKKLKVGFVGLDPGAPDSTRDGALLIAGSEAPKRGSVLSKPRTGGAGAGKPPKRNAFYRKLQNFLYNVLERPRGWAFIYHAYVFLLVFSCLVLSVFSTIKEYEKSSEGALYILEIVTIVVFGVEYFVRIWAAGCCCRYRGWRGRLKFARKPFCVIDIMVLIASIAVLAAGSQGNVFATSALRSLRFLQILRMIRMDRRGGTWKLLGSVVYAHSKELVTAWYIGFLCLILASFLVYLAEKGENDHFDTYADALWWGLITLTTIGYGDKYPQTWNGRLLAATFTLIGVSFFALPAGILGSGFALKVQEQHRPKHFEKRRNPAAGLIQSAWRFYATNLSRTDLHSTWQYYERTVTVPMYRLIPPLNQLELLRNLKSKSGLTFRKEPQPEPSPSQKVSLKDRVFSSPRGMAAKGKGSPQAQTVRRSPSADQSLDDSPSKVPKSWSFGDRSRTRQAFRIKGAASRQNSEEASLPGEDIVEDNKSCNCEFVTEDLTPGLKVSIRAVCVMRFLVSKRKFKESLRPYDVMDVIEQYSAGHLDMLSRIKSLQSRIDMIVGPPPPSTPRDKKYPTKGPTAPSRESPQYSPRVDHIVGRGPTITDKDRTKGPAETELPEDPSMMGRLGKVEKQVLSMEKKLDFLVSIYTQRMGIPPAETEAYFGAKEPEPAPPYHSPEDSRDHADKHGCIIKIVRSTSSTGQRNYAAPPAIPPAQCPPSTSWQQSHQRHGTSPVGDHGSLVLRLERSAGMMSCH
Sequence of Potassium voltage-gated channel subfamily KQT member 2 (O43526 whole entry): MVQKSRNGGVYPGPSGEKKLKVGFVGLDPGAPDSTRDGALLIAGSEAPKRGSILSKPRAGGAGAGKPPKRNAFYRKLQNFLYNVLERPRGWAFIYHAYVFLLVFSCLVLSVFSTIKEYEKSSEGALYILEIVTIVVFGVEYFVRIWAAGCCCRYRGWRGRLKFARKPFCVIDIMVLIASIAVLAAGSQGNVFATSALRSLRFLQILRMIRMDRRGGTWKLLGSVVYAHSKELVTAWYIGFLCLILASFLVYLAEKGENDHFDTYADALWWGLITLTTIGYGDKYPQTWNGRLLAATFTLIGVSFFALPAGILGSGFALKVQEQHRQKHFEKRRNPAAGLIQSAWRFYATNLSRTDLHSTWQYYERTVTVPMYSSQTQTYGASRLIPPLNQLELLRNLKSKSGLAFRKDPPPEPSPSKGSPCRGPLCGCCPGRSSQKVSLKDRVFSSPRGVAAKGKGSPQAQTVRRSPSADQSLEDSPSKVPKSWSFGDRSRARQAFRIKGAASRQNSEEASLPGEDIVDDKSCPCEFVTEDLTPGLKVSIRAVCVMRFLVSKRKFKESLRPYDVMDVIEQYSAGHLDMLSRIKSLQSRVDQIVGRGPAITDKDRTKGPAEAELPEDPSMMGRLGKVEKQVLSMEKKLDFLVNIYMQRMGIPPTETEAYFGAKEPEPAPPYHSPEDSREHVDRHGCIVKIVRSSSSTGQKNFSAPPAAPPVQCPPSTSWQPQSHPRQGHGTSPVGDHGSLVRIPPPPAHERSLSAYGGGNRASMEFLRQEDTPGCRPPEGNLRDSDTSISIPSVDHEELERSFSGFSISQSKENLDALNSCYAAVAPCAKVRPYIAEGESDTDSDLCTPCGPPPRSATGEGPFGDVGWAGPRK

What is called EC50 is the concentration needed to bring the measured effect to its halfway point. In general, half-life refers to how long it takes for the measured level to halve. The low end stands for fast loss, the high end for slow loss. Usually IC50 stands for the concentration at which inhibition is half-maximal. Usually clearance stands for the volume of plasma or blood freed of the substance per unit of time. A word on the Vd: it is the apparent volume that relates the amount in the body to the concentration in plasma or blood. Read a high Vd as extensive tissue distribution. The bioavailability is dose-corrected exposure relative to a reference, in per cent. Read a high bioavailability as good availability. For the compound `C[C@H](NC(=O)/C=C/c1ccc(F)cc1)c1ccc(F)c(N2CCOCC2)c1`, the EC50 stood at 1200 nM in [1] and 1550 nM in data set [5]. The compound also showed a half-life in data set [2] of 210 min. Moreover, the IC50 is 18 µM at Cytochrome P450 3A4 [3], 19 µM against Cytochrome P450 3A4 [7], 21 µM on Cytochrome P450 3A4 [8] and 19 µM against Cytochrome P450 3A4 [9]. The clearance in data set [4] was 17.8 mL/min/kg. In addition, the distribution volume (Vd) in [6] came to 3.3 L/kg. Moreover, in data set [10], the bioavailability is 84%.

On to `C[C@H](NC(=O)/C=C/c1ccccc1)c1cccc(N2CCOCC2)c1`, for which the EC50 was 3000 nM in data set [1] and 690 nM in [5]. Also, the IC50 was found to be 78 µM at Cytochrome P450 1A2; 27 µM against Cytochrome P450 3A4 [11]; 96 µM at Cytochrome P450 3A4 [3]; 13 µM in data set [12]; 76 µM on Cytochrome P450 3A4 [13]; 33 µM on Cytochrome P450 3A4 [7]. The IC50 at Cytochrome P450 3A4 [8] is 62 µM; at Cytochrome P450 3A4 [9], 22 µM; on Cytochrome P450 2C9, 5.3 µM; on Cytochrome P450 2D6 it was over 100 µM.

Source of the values: ChEMBL document CHEMBL1145064, “Fluorine substitution can block CYP3A4 metabolism-dependent inhibition: identification of (S)-N-[1-(4-fluoro-3- morpholin-4-ylphenyl)ethyl]-3- (4-fluorophenyl)acrylamide as an orally bioavailable KCNQ2 opener devoid of CYP3A4 metabolism-dependent inhibition” (J Med Chem, 2003).
